This is an account of results in ChEMBL document CHEMBL1131972, “Investigation of the 4-O-alkylamine substituent of non-peptide quinolone GnRH receptor antagonists” (Bioorg Med Chem Lett, 1999).

Structures are written as SMILES.

For the first experiment, the target named is T1, Gonadotropin-releasing hormone receptor (Rattus norvegicus, UniProt P30969).
T1 sequence (P30969 whole entry): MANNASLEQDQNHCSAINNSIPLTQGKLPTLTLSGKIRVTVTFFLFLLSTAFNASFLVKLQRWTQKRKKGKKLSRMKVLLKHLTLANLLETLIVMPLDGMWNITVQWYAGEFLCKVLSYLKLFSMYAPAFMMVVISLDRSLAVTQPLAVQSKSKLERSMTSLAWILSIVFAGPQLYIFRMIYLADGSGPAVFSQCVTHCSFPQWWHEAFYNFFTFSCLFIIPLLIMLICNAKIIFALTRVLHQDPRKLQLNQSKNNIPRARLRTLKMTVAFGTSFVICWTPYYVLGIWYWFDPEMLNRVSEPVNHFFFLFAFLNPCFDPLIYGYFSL
Nature of the experiment: Binding affinity for Gonadotropin-releasing hormone receptor in rat pituitary membrane at 10 buserelin as radioligand; NA is not active. Type of experiment: cell membranes.
What is called IC50 is the concentration at which inhibition is half-maximal. The low end stands for greater potency in that assay, the high end for weaker potency in that assay. As for `Cc1cc(C)cc(-c2c(O)nc3cc(Cl)c([N+](=O)[O-])cc3c2OCCc2ccccn2)c1`, the IC50 result is listed as “Not Active”.

The target in a further experiment is T1, Gonadotropin-releasing hormone receptor. As to the kind of experiment: Binding affinity for Gonadotropin-releasing hormone receptor in rat pituitary membrane at 10 buserelin as radioligand. Type of experiment: cell membranes.
In turn, `Cc1cc(C)cc(-c2c(O)nc3cc(Cl)c([N+](=O)[O-])cc3c2OCC[C@@H]2CCCCN2)c1` returned an IC50 of 10 nM.

Compound `Cc1cc(C)cc(-c2c(O)nc3cc(Cl)c([N+](=O)[O-])cc3c2OCC[C@H]2CCCN2)c1` displayed an IC50 of 100 nM.

As for `Cc1cc(C)cc(-c2c(O)nc3cc(Cl)c([N+](=O)[O-])cc3c2OCC[C@@H]2CCCCN2C)c1`, the IC50 was determined as 20 nM.

`Cc1cc(C)cc(-c2c(O)nc3cc(Cl)c([N+](=O)[O-])cc3c2OCC[C@@H]2CCCN2)c1` returned an IC50 of 15 nM. This IC50 and that of the compound before are within 1.5-fold of each other.

For the compound `Cc1cc(C)cc(-c2c(O)nc3cc(Cl)c([N+](=O)[O-])cc3c2OCC[C@H]2CCCCN2C)c1`, the IC50 was found to be 85 nM.

In turn, `Cc1cc(C)cc(-c2c(O)nc3cc(Cl)c([N+](=O)[O-])cc3c2OCCCC2CCCCN2)c1` (stereo unspecified) registered an IC50 of 1420 nM. Against the preceding compound, the IC50 is about 17-fold higher.

Compound `Cc1cc(C)cc(-c2c(OCCC3CCCCCN3)c3cc([N+](=O)[O-])c(Cl)cc3[nH]c2=O)c1` (stereo unspecified) had an IC50 of 36 nM.

Take `Cc1cc(C)cc(-c2c(O)nc3cc(Cl)c([N+](=O)[O-])cc3c2OCC[C@@H]2CCN2)c1`: the IC50 is 25 nM.

Take `Cc1cc(C)cc(-c2c(OCC3CCCNC3)c3cc([N+](=O)[O-])c(Cl)cc3[nH]c2=O)c1` (stereo unspecified): the IC50 is 36 nM.

The compound `Cc1cc(C)cc(-c2c(O)nc3cc(Cl)c([N+](=O)[O-])cc3c2OCC[C@H]2CCCCN2)c1` yielded an IC50 of 150 nM. Against the preceding compound, the IC50 is about 4.2-fold higher.
